As a reminder, the IC50 is the concentration at which inhibition is half-maximal. High values mean a need for much substance, low ones inhibition by little substance.

The experiment has as its system P. falciparum 3D7 growth, pLDH absorbance. Description: P. falciparum 3D7 growth inhibition, dose response, strain 3D7 (AID 2305).

`O=C1OC2(CCN(C(=O)c3ccc(-n4cnnn4)cc3)CC2)CN1Cc1ccc(Cl)c(Cl)c1` came in with an IC50 of 0.72 µM.
In turn, `COc1ccc2nc(N(CCCn3ccnc3)C(=O)C=Cc3cccs3)sc2c1` showed an IC50 of 1.05 µM.
As for `Cc1nn(CC(O)Cn2c3ccc(Br)cc3c3cc(Br)ccc32)c(C)c1Br` (configuration not stated), the figure is 0.71 µM.
Consider `C[C@@H](CC1CCCCC1)OC(=O)N[C@H]1CCN(C#N)C1`, for which the IC50 is 0.87 µM.
In turn, `COc1ccc(CCC(C)(C)NCC(O)c2cccc(C(F)(F)F)c2)cc1` (configuration not stated) returned an IC50 of 0.48 µM.
As for `CN(C)S(=O)(=O)c1ccc(N2C(=O)[C@@H]3[C@H](C2=O)[C@@]2(c4ccccc4)C(=O)[C@]3(c3ccccc3)C(c3ccccc3)=C2c2ccccc2)cc1`, the figure is 0.95 µM.
`CCOC(=O)c1ccc(NC(=O)N[C@@H](Cc2ccccc2)C(=O)NC2CCN(Cc3ccc(O)c(OC)c3)C2)cc1` (some centres not stated) gave a 50% inhibitory concentration (IC50) of 0.99 µM.
Consider `Nc1nccc2ccc(-c3ccc(Oc4ccccc4)cc3)cc12`, for which the half-inhibitory concentration (IC50) is 0.28 µM.
Consider `Oc1ccc(CCNCCCCCCNCCc2ccc(Cl)c(Cl)c2)cc1O`, for which the IC50 was determined as 0.73 µM.
Regarding `CSc1cccc(NC(=O)c2cc3ccccc3oc2=O)c1`, the IC50 was found to be 0.83 µM. This IC50 and that of the molecule before are within 1.5-fold of each other.
The result for `CC(CCNc1c2ccccc2nc2ccccc12)N1CCN(C)CC1` (configuration not stated) reads 0.8 µM; that for `CC1CCN(C(=O)CSc2nc(-c3ccc(C(C)C)cc3)no2)CC1`, 1.35 µM; that for `Cc1nc(-c2ccc(-c3ccc(C(=O)Nc4ccc5c(c4)C4(CCNCC4)CO5)cc3)c(C)c2)no1`, 0.86 µM.
As for `Oc1c(Br)cc2oc3c(c2c1CNCc1ccccc1)CCCC3`, the figure is 0.96 µM.
For `CS(=O)(=O)c1ccc(CCNCc2ccc(-c3ccc(CN(C(=O)c4ccco4)C4CCN(Cc5ccccc5)CC4)cc3)nc2)cc1`, the IC50 came out at 0.88 µM.
For the molecule `CCCCc1ccc(CCNCCCCCCNCCc2ccc(O)c(O)c2)cc1`, the IC50 worked out at 1.07 µM.
As for `N#CN1CC[C@@H](NS(=O)(=O)Cc2ccc(Cl)c(Cl)c2)C1`, the figure is 0.53 µM.
On to `Cc1nnnn1-c1ccc(C(=O)N2CCC3(CC2)CN(Cc2ccc(Cl)c(Cl)c2)C(=O)O3)cc1`, for which the IC50 was 0.18 µM.
Regarding `NC(N)=Nc1nc(-c2cccc(NC(=O)NCC(c3ccccc3)c3ccccc3)c2)cs1`, the half-maximal inhibitory concentration (IC50) is 0.79 µM.
The molecule `CC1CN(Cc2ccccc2)CCN1c1ccc(NC(=O)c2cccs2)cc1` (configuration not stated) came in with an IC50 of 0.28 µM.
For the molecule `FC(F)(F)c1cccc(CNCC2CCN(Cc3ccc4c(c3)OCO4)CC2)c1`, the IC50 stood at 0.73 µM.
`CN(CCN(C)C(=O)NCc1ccccc1)C(=O)NCc1ccccc1`: the concentration for half-maximal inhibition (IC50) was 0.93 µM. This IC50 and that of the molecule before are within 1.5-fold of each other.
As for `O=C(Nc1ccsc1)Nc1cccc(-c2cccc(-c3nc4ccc(C(F)(F)F)cc4[nH]3)c2)c1`, the figure is 0.15 µM; as for `COc1ccc(OC)c(NC(=O)CSc2nc(-c3ccccc3Cl)ns2)c1`, 0.83 µM.
In the case of `COC(=O)/C=C/c1ccc(CCC(C)NCC(O)c2cccc(Cl)c2)cc1` (configuration not stated), the half-maximal inhibitory concentration (IC50) was determined as 0.94 µM.
As for `COc1ccc2nccc([C@@H](O)CN3CCC(NC(=O)c4cccc(-c5cc(C)no5)c4)CC3)c2c1`, the figure is 0.34 µM; as for `CCCSc1nc2c(c(=O)n1Cc1ccco1)C1(CCCCC1)Cc1ccccc1-2`, 0.42 µM; as for `COCCN1CCC(CN(C)CC(C)(C)c2nc(-c3ccc(Cl)c(O)c3)c(-c3ccncc3)[nH]2)CC1`, 1.03 µM.
In the case of `COc1ccc(Nc2nccc(NCCNC(=O)c3cc4ccccc4s3)n2)cc1`, the IC50 worked out at 1.02 µM. This IC50 and that of the molecule before are within 1.5-fold of each other.
Molecule `CN(C)CC1CCCN1Cc1ccccc1-c1cnn(C)c(=O)c1Oc1ccc(F)cc1` (configuration not stated) yielded an IC50 of 1.22 µM.
As for `C[C@H](NC(=O)C1CCCC1)C(=O)Nc1ccc(-c2ccc(-c3nc4ccc(C(F)(F)F)cc4[nH]3)cc2)cc1`, the figure is 0.27 µM; as for `CNC(=O)c1cnc(Nc2ccc(N3CCN(C)CC3)cc2)nc1Nc1ccccc1OC`, 0.93 µM.
With `CCn1cnc2c(N3CCCC3=O)cc(C(=O)N[C@@H](Cc3ccccc3)[C@H](O)CNC3CCCCC3)cc21`, the IC50 amounted to 0.57 µM.
`O=C(Nc1ccc(F)c(Cl)c1)NC1CCN(c2ccnc3cc(Cl)ccc23)C1` (configuration not stated): the half-inhibitory concentration (IC50) was 0.21 µM.
Molecule `O=C(N[C@H]1CCN(CCc2ccc(O[C@H]3CCNC3)cc2)C1)c1ccc(Cl)c(Cl)c1` yielded an IC50 of 0.83 µM.
As for `CC(=O)Nc1ncc(C(=O)Nc2ccc(-c3cccc(-c4nc5ccc(C(F)(F)F)cc5[nH]4)c3)cc2)s1`, the figure is 0.26 µM; as for `CC(=O)Nc1cccc(C(=O)Nc2cccc(-c3ccc(-c4nc5c(C)cccc5[nH]4)s3)c2)c1`, 0.77 µM.
The molecule `Cc1cc(N[C@@H](Cc2ccccc2)C(=O)Nc2ccccc2)nc(NCC2CCCCC2)n1` gave an IC50 of 0.76 µM.
The molecule `Clc1ccc2c(N3CCCNCC3)ccnc2c1` yielded an IC50 of 0.48 µM. Compared with the last molecule, the IC50 is about 1.6-fold lower.
As for `C/C(=C\C(=O)NC1CC1)c1ccccc1OCc1ccccc1`, the figure is 0.5 µM; as for `O=C(Nc1cccc(OC2CCN(Cc3ccc(F)cc3)CC2)c1)c1ccc(C(F)(F)F)cc1`, 0.95 µM; as for `O=C(COc1ccccc1Cc1ccccc1)Nc1cc(Cl)ccc1-n1cncn1`, 0.64 µM.
As for `CSc1ccc(NC(=O)Nc2cc(C)nc3ccccc23)cc1Br`, the half-maximal inhibitory concentration (IC50) amounted to 0.78 µM.
Consider `O=C(c1ccc(F)c(F)c1)N1CCOC(CCN2CCC(c3ccccc3)CC2)(c2ccc(Cl)c(Cl)c2)C1` (configuration not stated), for which the IC50 worked out at 1.04 µM.
`CC(C)(C)c1ccc(C(=O)Nc2ccc3nc4c(c(N)c3c2)CCCC4)cc1` yielded a 50% inhibitory concentration (IC50) of 0.17 µM.
As for `CCCNCc1ccc(-c2ccc(CN(CCOC)C(=O)c3ccco3)cc2)nc1`, the IC50 worked out at 1 µM.
In turn, `COc1ccc2nccc([C@@H](O)CN3[C@@H]4CC[C@H]3CC(NCc3ccc5c(n3)NC(=O)CS5)C4)c2n1` (some centres not stated) showed an IC50 of 0.93 µM.
As for `Cc1nc(N)nc(N)c1C#CC1CCCC1`, the figure is 0.77 µM.
The result for `COc1ccc2nccc(N3CCC(NCCNCc4ccc5c(n4)NC(=O)CS5)C3)c2n1` (configuration not stated) reads 0.69 µM.
As for `CCOc1ccc2c(NN=Cc3cc(OC)c(OC)cc3OC)cc(C)nc2c1`, the figure is 1 µM; as for `Nc1nc(N)c2c(Sc3ccc(F)cc3)cccc2n1`, 1.07 µM.
The molecule `CC[C@H]1CN2CC[C@@H]1C[C@H]2[C@H](O)c1cc(-c2ccc(Cl)c(Cl)c2)nc2ccc(O)cc12` showed a 50% inhibitory concentration (IC50) of 0.26 µM.
For the molecule `Cc1cc(NN=Cc2ccc(F)cc2)c2ccc(C(F)(F)F)cc2n1`, the IC50 amounted to 0.82 µM. Against the preceding molecule, the IC50 is about 3.2-fold higher.
As for `CCN(CCCN1CCCCC1)c1cc(C)nc(Nc2ccc(C)cc2C)n1`, the figure is 0.35 µM.
On to `CCCCSc1ccc2nc(-c3c[nH]c4ccc(C#N)cc34)cn2c1`, for which the 50% inhibitory concentration (IC50) amounted to 0.95 µM.
`COc1ccc2nccc([C@@H](O)CN3CCC(NCc4nc5c(F)cccc5[nH]4)CC3)c2c1` gave an IC50 of 0.47 µM.
With `O=S(=O)(NCCN1CCCC1)c1ccc(-c2cccc(CNCc3ccc(F)cc3)c2)cc1F`, the IC50 came out at 0.79 µM.
`CC[C@H]1CN2CC[C@H]1C[C@H]2[C@H](O)c1ccnc2ccc(O)cc12` gave a concentration for half-maximal inhibition (IC50) of 0.64 µM.
`CC(=O)Nc1ccccc1OCc1cc2cc(C(=O)N3CCC(N4C(=O)OCc5ccccc54)CC3)ccc2o1` yielded a 50% inhibitory concentration (IC50) of 0.24 µM. This IC50 lies about 2.7-fold lower than the previous one.
As for `O=C(Nc1ccc([N+](=O)[O-])cc1)Nc1nc2ccc(Cl)cc2s1`, the IC50 is 0.84 µM.
Consider `CC(C)CN1CCCN(Cc2cccc(NC(=O)c3ccc(-c4ccccc4)cc3)c2)CC1`, for which the IC50 was determined as 0.88 µM.
In the case of `O=C(/C=C/c1ccc(Cl)c(Cl)c1)NCCCCCN1CCC(NC(=O)Nc2ccc(Cl)c(Cl)c2)CC1`, the IC50 was 0.89 µM.
Molecule `Cc1ccc(Cc2cnc(CN3CCCCC3)c(O)c2)cc1` came in with an IC50 of 0.89 µM. In other words, the sub-micromolar range.
As for `CC(=O)Nc1ccc(C(=O)Nc2ccc(-c3cccc(-c4nc5c(C)cccc5[nH]4)c3)cc2)cn1`, the IC50 turned out to be 0.26 µM.
Molecule `CN(C)CC(=O)Nc1ccc(Nc2nccc(NCC(O)c3ccccc3)n2)cc1` (configuration not stated) yielded a half-inhibitory concentration (IC50) of 0.97 µM.
Molecule `COc1ccc(C[C@@H](C)NC[C@H](O)c2cccc(Cl)c2)cc1F` returned a half-inhibitory concentration (IC50) of 0.87 µM.
`O=C(Nc1ccc2c(c1)CCN2C1CCN(Cc2cccc(C(F)(F)F)c2)C1)c1ccco1` (configuration not stated) had a half-inhibitory concentration (IC50) of 0.56 µM.
Take `O=c1ccc(-c2nc3cc(Cl)c(Cl)cc3n2Cc2ccc(Cl)cc2Cl)c[nH]1`: the half-inhibitory concentration (IC50) worked out at 1.11 µM. This IC50 is about 2-fold higher than that of the molecule before.
`O=C(Nc1cc(Cl)cc(Cl)c1)c1cc(Cl)c(=O)n(Cc2cccc(Cl)c2)c1` showed an IC50 of 0.75 µM.
As for `CC(C)(CNC(=O)/C=C/c1ccc(Cl)c(Cl)c1)CNc1cc(=O)c2ccccc2[nH]1`, the IC50 came to 0.86 µM.
The result for `CCCc1cc(C(=O)N[C@@H](Cc2ccccc2)[C@H](O)CNC(C)(C)c2cccc(OC)c2)c(F)c(N2CCCC2=O)c1` reads 0.1 µM.
In turn, `COc1cc(-c2nc(-c3ccccc3)c(-c3ccccc3)[nH]2)cc(OC)c1O` showed an IC50 of 0.77 µM.
With `CC(C)N1CCC(NC(=O)N2CCCN(c3ncnc4cc(-c5ccccc5)sc34)CC2)CC1`, the IC50 amounted to 0.86 µM.
In the case of `COc1ccc(-c2nc3c(N)nc(N)nc3nc2-c2ccccc2Cl)cc1` (tested in a mixture with another compound), the IC50 amounted to 0.55 µM.
On to `c1ccc(-n2cncn2)cc1`, for which the IC50 stood at 0.59 µM.
In turn, `COc1ccccc1/C=C/C(=O)NCCC1CCN(CCCCCNC(=O)/C=C/c2ccc(Cl)c(Cl)c2)CC1` showed a half-inhibitory concentration (IC50) of 0.81 µM.
Regarding `CCn1c(Sc2ccc(C#N)c([N+](=O)[O-])c2)nnc1-c1ccc(Cl)cc1`, the IC50 is 0.55 µM.
The result for `CCCc1cc(Cc2cnc(N)nc2N)cc(CC)c1OC` reads 0.82 µM; that for `CNCCNCc1ccc(-c2ccc(-c3nc4ccccc4[nH]3)s2)cc1`, 0.86 µM; that for `O=C(/C=C/c1ccc(Cl)c(Cl)c1)NC1CCC(CN2CCC(c3cc4ccccc4[nH]3)CC2)CC1` (configuration not stated), 0.99 µM.
The molecule `CCCCOP(=O)(OCCCC)C(=Cc1ccc(O)c2ccccc12)P(=O)(OCCCC)OCCCC` returned an IC50 of 1.07 µM.
The molecule `COCCNCc1cccc(-c2ccc(CNC3CCN(Cc4ccccc4)CC3)cc2)c1` showed an IC50 of 0.51 µM. Compared with the last molecule, the IC50 is about 2.1-fold lower.
`O=C(/C=C/c1ccc(Cl)c(Cl)c1)NC1CCC(N2CCC(c3c[nH]c4ccccc34)CC2)CC1` (configuration not stated) had an IC50 of 0.88 µM. This IC50 lies about 1.7-fold higher than the previous one.
Consider `CNC(=O)c1ccc2[nH]cc(C3CCN(CC4CCC(NC(=O)/C=C/c5ccc(Cl)c(Cl)c5)CC4)CC3)c2c1` (configuration not stated), for which the IC50 came to 1.01 µM.
As for `CS(=O)(=O)Nc1cccc(-c2cnc3[nH]cc(-c4cc(N)cc(C(=O)O)c4)c3c2)c1`, the figure is 1.08 µM; as for `O=C(/C=C/c1ccc(Cl)c(Cl)c1)NC1CCC(CN2CC[C@H](c3c[nH]c4ccccc34)[C@@H](O)C2)CC1` (some centres not stated), 0.72 µM.
Turning to `CC1=C(C(=O)Nc2ccccc2)C(c2ccc([N+](=O)[O-])cc2)n2ncc(C(=O)Nc3ccccc3)c2N1` (configuration not stated), the IC50 is 1.24 µM.

For the origin of these results see PubChem BioAssay AID2305 (GlaxoSmithKline (GSK), 2010).
